Results on five compounds are retold here after ChEMBL document CHEMBL1142742, “Synthesis and in vitro and in vivo structure-activity relationships of novel antifungal triazoles for dermatology” (2005).

Common to all, as to assay type: functional
One experiment has as its system Trichophyton benhamiae. The experiment is described as follows: Minimum inhibitory concentration against Trichophyton mentagrophytes (n=20).
The species named for the next experiment is Mus musculus. Put plainly: Effective dose was measured in mice infected with Trichophyton mentagrophytes.
The test system of a further experiment is Trichophyton rubrum. Put plainly: Minimum inhibitory concentration against Trichophyton rubrum (n=14).
The test system of the next experiment is Trichophyton tonsurans. The experiment is described as follows: Minimum inhibitory concentration against Trichophyton tonsurans (n=18).
For experiment [1], the species on record is Cavia porcellus. The experiment is described as follows: Effective dose was measured in guinea pig infected with Microsporum canis on 14th day.
The species named for experiment [2] is Cavia porcellus. Put plainly: Effective dose was measured in guinea pig infected with Microsporum canis on 21st day.
Experiment [3] is described as follows: Minimum inhibitory concentration against Trichophyton species (n=80).
For experiment [4], the species on record is Cavia porcellus. The experiment is described as follows: Effective dose was measured in guinea pig infected with Microsporum canis on 7th day.
A short description of experiment [5]: Minimum inhibitory concentration against Microsporum species (n=38).
The test system of a further experiment is Epidermophyton floccosum. The experiment is described as follows: Minimum inhibitory concentration against Epidermophyton floccosum (n=12).
Another experiment relates to Candida. Put plainly: Minimum inhibitory concentration against Candida species (n=24).
Another experiment deals with Aspergillus sp. The experiment is described as follows: Minimum inhibitory concentration against Aspergillus species (n=8).
Setting [6] is: Trichophyton benhamiae, read-out: MIC50.
[7] abbreviates: Trichophyton benhamiae, read-out: MIC90.
Setting [8] is: Trichophyton rubrum, read-out: MIC50.
Where [9] appears, read: Trichophyton rubrum, read-out: MIC90.
The mark [10] stands for this setting: Trichophyton tonsurans, read-out: MIC50.
Where [11] appears, read: Trichophyton tonsurans, read-out: MIC90.
Where [12] appears, read: Cavia porcellus, read-out: ED50.
[13] abbreviates: Epidermophyton floccosum, read-out: MIC50.
[14] abbreviates: Epidermophyton floccosum, read-out: MIC90.
The mark [15] stands for this setting: Aspergillus sp., read-out: MIC50.
The mark [16] stands for this setting: Aspergillus sp., read-out: MIC90.

In brackets after ≈: the same amount, converted by molar mass. Bounds are passed on as bounds.

On to `CCN1C(=O)N(c2ccc(N3CCN(c4ccc(OC[C@H]5CO[C@](Cn6cncn6)(c6ccc(F)cc6F)O5)cc4)CC3)cc2)C(=O)C(C)(C)C1=O`, for which the MIC50 in the experiment with Trichophyton benhamiae (setting [6]) is 1 µg/mL (≈ 1.4 µM); with Trichophyton rubrum (setting [8]), 11.6 µg/mL (≈ 16.2 µM); in the experiment with Trichophyton tonsurans (setting [10]) it was greater than 20 µg/mL; in experiment [3] (Trichophyton, read-out: MIC50), greater than 20 µg/mL; in experiment [5] (Microsporum, read-out: MIC50), 10 µg/mL (≈ 14 µM); with Epidermophyton floccosum (setting [13]), 3.2 µg/mL (≈ 4.47 µM). For the same compound, the MIC50 in the experiment on Candida (Candida, read-out: MIC50) was 0.66 µg/mL (≈ 0.922 µM); with Aspergillus sp. (setting [15]), greater than 20 µg/mL. Further, the MIC90 with Trichophyton benhamiae (setting [7]) is greater than 20 µg/mL; in the experiment with Trichophyton rubrum (setting [9]), greater than 20 µg/mL; with Trichophyton tonsurans (setting [11]), greater than 20 µg/mL; in experiment [3] (Trichophyton, read-out: MIC90) it was greater than 20 µg/mL; in experiment [5] (Microsporum, read-out: MIC90) it was greater than 20 µg/mL; in the experiment with Epidermophyton floccosum (setting [14]), greater than 20 µg/mL. Also, the MIC90 against Candida and in the experiment with Aspergillus sp. (setting [16]) was greater than 20 µg/mL throughout. Moreover, the ED50 in the experiment filed under Mus musculus (Mus musculus, read-out: ED50) is 3.1 mg/kg; in the experiment listed under Cavia porcellus [1] (setting [12]), greater than 5 mg/kg; in the experiment filed under Cavia porcellus [2] (setting [12]), greater than 5 mg/kg; in the experiment listed under Cavia porcellus [4] (setting [12]), greater than 5 mg/kg.

Consider `CCCn1c(=O)n(CC)c(=O)n(-c2ccc(N3CCN(c4ccc(OC[C@H]5OC[C@](Cn6cncn6)(c6ccc(F)cc6F)O5)cc4)CC3)cc2)c1=O`, for which the MIC50 in the experiment on Trichophyton benhamiae (setting [6]) stood at 1 µg/mL (≈ 1.37 µM); in the experiment with Trichophyton rubrum (setting [8]), 3.2 µg/mL (≈ 4.38 µM); with Trichophyton tonsurans (setting [10]), 10 µg/mL (≈ 13.7 µM); in experiment [3] (Trichophyton, read-out: MIC50) it was 3.2 µg/mL (≈ 4.38 µM); in [5] (Microsporum, read-out: MIC50), 3.2 µg/mL (≈ 4.38 µM); with Epidermophyton floccosum (setting [13]), 1 µg/mL (≈ 1.37 µM). In addition, the MIC50 in the experiment with Candida (Candida, read-out: MIC50) was 3.2 µg/mL (≈ 4.38 µM); in the experiment on Aspergillus sp. (setting [15]) it was greater than 20 µg/mL. Also, the MIC90 is 3.2 µg/mL (≈ 4.38 µM) in the experiment with Trichophyton benhamiae (setting [7]); 10 µg/mL (≈ 13.7 µM) in the experiment with Trichophyton rubrum (setting [9]); greater than 20 µg/mL in the experiment on Trichophyton tonsurans (setting [11]); greater than 20 µg/mL in experiment [3] (Trichophyton, read-out: MIC90); greater than 20 µg/mL in experiment [5] (Microsporum, read-out: MIC90); 3.2 µg/mL (≈ 4.38 µM) with Epidermophyton floccosum (setting [14]). Also, the MIC90 against Candida and with Aspergillus sp. (setting [16]) was greater than 20 µg/mL in each case. In addition, the ED50 in the experiment filed under Mus musculus (Mus musculus, read-out: ED50) was greater than 1.25 mg/kg; in the experiment filed under Cavia porcellus [1] (setting [12]) it was 2.35 mg/kg; in the experiment filed under Cavia porcellus [2] (setting [12]), greater than 2.5 mg/kg; in the experiment listed under Cavia porcellus [4] (setting [12]), 1.25 mg/kg.

On to `CC(C)N1CCN(c2ccc(N3CCN(c4ccc(OC[C@H]5OC[C@](Cn6cncn6)(c6ccc(F)cc6F)O5)cc4)CC3)cc2)C1=O` (stereo in doubt; 4c) [PRAMICONAZOLE], for which the MIC50 in the experiment on Trichophyton benhamiae was 0.01 µg/mL (≈ 0.0152 µM); in the experiment on Trichophyton rubrum, 0.32 µg/mL (≈ 0.485 µM); against Trichophyton tonsurans, 0.32 µg/mL (≈ 0.485 µM); in [3] it was 0.1 µg/mL (≈ 0.152 µM); in [5] it was 0.032 µg/mL (≈ 0.0485 µM); against Epidermophyton floccosum it was 0.32 µg/mL (≈ 0.485 µM). The MIC50 is 0.1 µg/mL (≈ 0.152 µM) with Candida and greater than 20 µg/mL with Aspergillus sp.. Besides, the MIC90 came to 0.032 µg/mL (≈ 0.0485 µM) in the experiment on Trichophyton benhamiae; 0.796 µg/mL (≈ 1.21 µM) with Trichophyton rubrum; 0.1 µg/mL (≈ 0.152 µM) in the experiment with Trichophyton tonsurans; 1.22 µg/mL (≈ 1.85 µM) in [3]; 0.524 µg/mL (≈ 0.794 µM) in experiment [5]; 0.093 µg/mL (≈ 0.141 µM) with Epidermophyton floccosum. In the experiment on Aspergillus sp., this compound registered an MIC90 greater than 20 µg/mL. Besides, the ED50 is less than 0.63 mg/kg in the experiment listed under Mus musculus, less than 0.31 mg/kg in the experiment listed under Cavia porcellus [1], less than 0.31 mg/kg in the experiment filed under Cavia porcellus [2] and less than 0.31 mg/kg in the experiment filed under Cavia porcellus [4].

In the case of `CCC(C)n1ncn(-c2ccc(N3CCN(c4ccc(OC[C@H]5CO[C@](Cn6cncn6)(c6ccc(Cl)cc6Cl)O5)cc4)CC3)cc2)c1=O` (some centres undefined) [ITRACONAZOLE], the MIC50 in the experiment on Trichophyton benhamiae (setting [6]) worked out at 0.01 µg/mL (≈ 0.0142 µM); in the experiment on Trichophyton rubrum (setting [8]), 0.01 µg/mL (≈ 0.0142 µM); in the experiment with Trichophyton tonsurans (setting [10]), 0.32 µg/mL (≈ 0.453 µM); in experiment [3] (Trichophyton, read-out: MIC50) it was 0.1 µg/mL (≈ 0.142 µM); in experiment [5] (Microsporum, read-out: MIC50) it was 0.032 µg/mL (≈ 0.0453 µM); in the experiment with Epidermophyton floccosum (setting [13]), 0.032 µg/mL (≈ 0.0453 µM). In addition, the MIC50 with Candida (Candida, read-out: MIC50) was 0.1 µg/mL (≈ 0.142 µM); with Aspergillus sp. (setting [15]), 0.32 µg/mL (≈ 0.453 µM). Moreover, the MIC90 in the experiment on Trichophyton benhamiae (setting [7]) was 0.129 µg/mL (≈ 0.183 µM); with Trichophyton rubrum (setting [9]) it was 0.32 µg/mL (≈ 0.453 µM); with Trichophyton tonsurans (setting [11]) it was 0.524 µg/mL (≈ 0.743 µM); in experiment [3] (Trichophyton, read-out: MIC90), 1 µg/mL (≈ 1.42 µM); in [5] (Microsporum, read-out: MIC90) it was 0.524 µg/mL (≈ 0.743 µM); in the experiment on Epidermophyton floccosum (setting [14]) it was 0.093 µg/mL (≈ 0.132 µM). The MIC90 against Candida was 17 µg/mL (≈ 24.1 µM); in the experiment on Aspergillus sp. (setting [16]), 1.18 µg/mL (≈ 1.68 µM). Moreover, the ED50 amounted to 2.6 mg/kg in the experiment filed under Mus musculus (Mus musculus, read-out: ED50); 1.2 mg/kg in the experiment filed under Cavia porcellus [1] (setting [12]); 1.18 mg/kg in the experiment listed under Cavia porcellus [2] (setting [12]); 0.84 mg/kg in the experiment filed under Cavia porcellus [4] (setting [12]).

`CN(C/C=C/C#CC(C)(C)C)Cc1cccc2ccccc12` [TERBINAFINE]: the MIC50 in the experiment on Trichophyton benhamiae (setting [6]) stood at 0.01 µg/mL (≈ 0.0343 µM); with Trichophyton rubrum (setting [8]) it was 0.01 µg/mL (≈ 0.0343 µM); with Trichophyton tonsurans (setting [10]), 0.032 µg/mL (≈ 0.11 µM); in experiment [3] (Trichophyton, read-out: MIC50) it was 0.01 µg/mL (≈ 0.0343 µM); in experiment [5] (Microsporum, read-out: MIC50), 0.032 µg/mL (≈ 0.11 µM); in the experiment with Epidermophyton floccosum (setting [13]) it was 0.032 µg/mL (≈ 0.11 µM). Also, the MIC50 in the experiment with Candida (Candida, read-out: MIC50) amounted to 20 µg/mL (≈ 68.6 µM); in the experiment on Aspergillus sp. (setting [15]), 0.32 µg/mL (≈ 1.1 µM). Besides, the MIC90 turned out to be 0.01 µg/mL (≈ 0.0343 µM) with Trichophyton benhamiae (setting [7]); 0.0254 µg/mL (≈ 0.0872 µM) in the experiment with Trichophyton rubrum (setting [9]); 0.0524 µg/mL (≈ 0.18 µM) in the experiment on Trichophyton tonsurans (setting [11]); 0.032 µg/mL (≈ 0.11 µM) in [3] (Trichophyton, read-out: MIC90); 0.032 µg/mL (≈ 0.11 µM) in experiment [5] (Microsporum, read-out: MIC90); 0.093 µg/mL (≈ 0.319 µM) with Epidermophyton floccosum (setting [14]). The MIC90 in the experiment on Candida came to 20 µg/mL (≈ 68.6 µM); in the experiment on Aspergillus sp. (setting [16]), 1.66 µg/mL (≈ 5.7 µM). In addition, the ED50 in the experiment listed under Mus musculus (Mus musculus, read-out: ED50) was determined as 2.5 mg/kg; in the experiment filed under Cavia porcellus [1] (setting [12]), 10 mg/kg; in the experiment listed under Cavia porcellus [2] (setting [12]), 10 mg/kg; in the experiment listed under Cavia porcellus [4] (setting [12]), 10 mg/kg.
